We go through three compounds from ChEMBL document CHEMBL3045279, “Chiral Synthesis of Pefurazoate Enantiomers and Their Antifungal Activity to Gibberella fujikuroi” (1992).

As usually defined, the MIC is the least concentration at which growth counts as inhibited. Broadly, the inhibition is how much of the control response was suppressed.

The structures appear in SMILES notation. ≈ marks a conversion by molar mass, not a printed value.

Holding throughout (assay type): functional
In assay [1] the test system is Fusarium fujikuroi. Briefly: Antifungal activity against Fusarium fujikuroi assessed as mycelial growth inhibition after 4 days. As to conditions: 96 h; for EC50: read-out: ED50 (the source's name).
For assay [2], the system named is Fusarium fujikuroi. Briefly: Antifungal activity against Fusarium fujikuroi assessed as mycelial growth inhibition at 0.63 ppm after 4 days relative to control. As to conditions: 96 h, read-out: GI.
Assay [3] deals with Fusarium fujikuroi. Briefly: Antifungal activity against Fusarium fujikuroi assessed as mycelial growth inhibition at 5 ppm after 4 days relative to control. The conditions noted are these: 96 h, read-out: GI.
Assay [4] has as its system Fusarium fujikuroi. Nature of the assay: Antifungal activity against Fusarium fujikuroi assessed as mycelial growth inhibition at 0.15 ppm after 4 days relative to control. The conditions noted are these: 96 h, read-out: GI.
The subject of assay [5] is Fusarium fujikuroi. Nature of the assay: Antifungal activity against Fusarium fujikuroi assessed as mycelial growth inhibition at 2.5 ppm after 4 days relative to control. The conditions noted are these: 96 h, read-out: GI.
The test system of assay [6] is Fusarium fujikuroi. Briefly: Antifungal activity against Fusarium fujikuroi assessed as mycelial growth inhibition at 0.31 ppm after 4 days relative to control. As to conditions: 96 h, read-out: GI.
Assay [7] has as its system Fusarium fujikuroi. Briefly: Antifungal activity against Fusarium fujikuroi assessed as mycelial growth inhibition at 1.25 ppm after 4 days relative to control. The conditions noted are these: 96 h, read-out: GI.
Assay [8] relates to Fusarium fujikuroi. Briefly: Inhibition of ergosterol biosynthesis in Fusarium fujikuroi assessed as [2-14C]-sodium acetate incorporation at 0.24 ppm after 2 hr by liquid scintillation counting analysis relative to control.
Assay [9] has as its system Fusarium fujikuroi. Briefly: Inhibition of ergosterol biosynthesis in Fusarium fujikuroi assessed as decrease in ergosterol level in total lipids measuring [2-14C]-sodium acetate incorporation at 0.24 ppm after 2 hr by liquid scintillation counting analysis (reference value: 6 to 12.3%).
In assay [10] the test system is Fusarium fujikuroi. Nature of the assay: Inhibition of ergosterol biosynthesis in Fusarium fujikuroi assessed as increase in 24-methylenedihydrolanosterol level in total lipids measuring [2-14C]-sodium acetate incorporation at 0.24 ppm after 2 hr by liquid scintillation counting analysis (reference value: 4.8 to 7.4%).
The test system of assay [11] is Fusarium fujikuroi. Nature of the assay: Antifungal activity against Fusarium fujikuroi assessed as mycelial growth inhibition at 20 ppm after 4 days relative to control. The conditions noted are these: 96 h, read-out: GI.
For assay [12], the system named is Fusarium fujikuroi. Nature of the assay: Antifungal activity against Fusarium fujikuroi assessed as mycelial growth inhibition at 10 ppm after 4 days relative to control. As to conditions: 96 h, read-out: GI.
The subject of assay [13] is Fusarium fujikuroi. Briefly: Inhibition of ergosterol biosynthesis in Fusarium fujikuroi assessed as decrease in ergosterol level in total lipids measuring [2-14C]-sodium acetate incorporation at 7.35 ppm after 2 hr by liquid scintillation counting analysis (reference value: 6 to 12.3%).
The test system of assay [14] is Fusarium fujikuroi. Briefly: Inhibition of ergosterol biosynthesis in Fusarium fujikuroi assessed as increase in 24-methylenedihydrolanosterol level in total lipids measuring [2-14C]-sodium acetate incorporation at 7.35 ppm after 2 hr by liquid scintillation counting analysis (reference value: 4.8 to 7.4%).
For assay [15], the system named is Fusarium fujikuroi. Briefly: Antifungal activity against Fusarium fujikuroi assessed as mycelial growth inhibition at 40 ppm after 4 days relative to control. As to conditions: 96 h, read-out: GI.
Assay [16] deals with Fusarium fujikuroi. Nature of the assay: Inhibition of ergosterol biosynthesis in Fusarium fujikuroi assessed as [2-14C]-sodium acetate incorporation at 7.35 ppm after 2 hr by liquid scintillation counting analysis relative to control.

With `C=CCCCOC(=O)C(CC)N(Cc1ccco1)C(=O)n1ccnc1` (racemic) [Pefurazoate], in assay [1], the MIC stood at 2.5 µg/mL (≈ 7.24 µM) and the EC50 turned out to be 0.49 µg/mL (≈ 1.42 µM). For the same compound, the inhibition of growth at 0.63 ppm in [2] turned out to be 58%. In addition, the inhibition of growth at 5 ppm in assay [3] worked out at 100%. Further, in [4], the inhibition of growth at 0.15 ppm was 20%. Also, the inhibition of growth at 2.5 ppm in assay [5] worked out at 100%. In assay [6], the inhibition of growth at 0.31 ppm worked out at 35%. Besides, the inhibition of growth at 1.25 ppm in assay [7] is 75%.

On to `C=CCCCOC(=O)[C@H](CC)N(Cc1ccco1)C(=O)n1ccnc1` [(S)-(-)-pefurazoate], for which the MIC in assay [1] was above 40 µg/mL. Further, in [1], the EC50 amounted to 0.24 µg/mL (≈ 0.695 µM). Moreover, the inhibition of growth at 0.63 ppm in assay [2] was determined as 78%. Further, the inhibition at 0.24 ppm in [8] was 87%; in [9] it was 0.8%; in [10], 13.6%. The inhibition of growth at 5 ppm in assay [3] is 100%. Moreover, the inhibition of growth at 0.15 ppm in assay [4] stood at 35%. Besides, in [5], the inhibition of growth at 2.5 ppm is 100%. In [6], the inhibition of growth at 0.31 ppm stood at 60%. In addition, the inhibition of growth at 1.25 ppm in assay [7] was 100%.

Turning to `C=CCCCOC(=O)[C@@H](CC)N(Cc1ccco1)C(=O)n1ccnc1` [(R)-(+)-pefurazoate], the inhibition of growth at 20 ppm in [11] amounted to 63%. For the same compound, in [12], the inhibition of growth at 10 ppm came to 53%. Also, the inhibition at 7.35 ppm in [13] amounted to 1.3%; in assay [14], 14.2%; in [16], 47%. In addition, in [1], the minimal inhibitory concentration (MIC) was determined as 1.25 µg/mL (≈ 3.62 µM). For the same compound, in [1], the EC50 was 7.35 µg/mL (≈ 21.3 µM). The inhibition at 0.24 ppm in assay [9] amounted to 3.2%; in [10], 12.2%. In assay [15], the inhibition of growth at 40 ppm was 73%. Besides, the inhibition of growth at 5 ppm in [3] turned out to be 45%. Moreover, the inhibition of growth at 2.5 ppm in assay [5] is 38%. The inhibition of growth at 1.25 ppm in assay [7] was determined as 25%.
